Test results from paper PMC9070039, “Synthesis and evaluation of antimicrobial activity, cytotoxic and pro-apoptotic effects of novel spiro-4H-pyran derivatives” (RSC Advances, 2019).
≈ marks a conversion by molar mass, not a printed value.

Tests used:
A549 cells [1] = assay: MTT cytotoxicity assay; format: cell-based; conditions: Homo sapiens, 48 h
Protocol: (§1) At first, in order to compare anti-cancer properties, the synthesized compounds 5a–j were evaluated against A549 cells, MCF-7 cells, A375 cells, PC3 cells, LNCaP cells and HDF cells lines using the MTT colorimetric assay. The activity is expressed as 50% growth inhibitory concentration (IC50) values at 48 h. We used DMSO (1%) as negative control and Etoposide as positive control.
(§2) Human non-small-cell lung cancer A549 cells, human breast cancer MCF-7 cells, human malignant melanoma cells (A375), human prostate cancer cells (PC3 cells, LNCaP cells) and normal cells HDF (human dermal fibroblast) were received from Pasture Institute, Tehran, Iran. MCF-7 cells were grown in RPMI 1640 medium, A549 cells, A375 cells, PC3 cells, LNCaP cells and HDF cells were grown in DMEM medium. All media contain 10% fetal bovine serum (FBS), penicillin G, streptomycin 100 μg mL^−1 and 1% L-glutamine. The cells were cultured and incubated under humidified 5% CO2 atmosphere at 37 °C.
(§3) The effect of compounds treatment on the viability of cancer cell lines was measured by (3-(4,5-dimethylthiazol-2-yl)-2,5-diphenyl tetrazolium bromide or MTT) assay (MTT assay kit, Bio IDEA, CatNo: BI1017, Iran) based on the ability of live cells to cleave the tetrazolium ring to a molecule that absorb at […] as per the manufacturer's instructions.[33] Etoposide (was kindly provided by Dr A. Foroumadi, Tehran medical Science University, Iran) and dimethyl sulfoxide (or DMSO) was used as positive and negative controls, respectively.[34] Briefly, cells were plated in 96-well culture plates (5 × 10^3 cells per well). After 24 h incubation, the cells were treated with different concentrations of the compounds. After 48 h at 37 °C, the medium was removed and 100 μL of MTT reagent (1 mg mL^−1) was added to each well, and cells were further incubated at 37 °C for 4 h. The MTT solution was removed, 50 μL of DMSO was added to each well to dissolve formazan crystals, and the plates were gently shaken for 10 minutes, followed by reading with an ELISA plate reader (BiotekELx 800, USA). The 50% inhibition concentration (IC50) was defined as the concentration that inhibited cell proliferation by 50% when compared to DMSO treated cells (as negative control).

PC3 cells = assay: MTT cytotoxicity assay; format: cell-based; conditions: Homo sapiens, PC-3, 48 h
Protocol: as §1, §2, §3

HDF cells = assay: MTT cytotoxicity assay; format: cell-based; conditions: 48 h, normal cells (human dermal fibroblast)
Protocol: as §1, §2, §3

MCF-7 cells = assay: MTT cytotoxicity assay; format: cell-based; conditions: Homo sapiens, MCF7, 48 h
Protocol: as §1, §2, §3

LNCaP cells = assay: MTT cytotoxicity assay; format: cell-based; conditions: Homo sapiens, 48 h
Protocol: as §1, §2, §3

A375 cells = assay: MTT cytotoxicity assay; format: cell-based; conditions: Homo sapiens, A-375, 48 h
Protocol: as §1, §2, §3

S. aureus [2] = assay: Disk diffusion antibacterial test; format: cell-based, Staphylococcus aureus; conditions: there called agar dilution method
Protocol: (§4) Antibacterial effects of spiro[indeno[2,1-c]pyridazine-9,4′-pyran]-3′,4-dicarbonitrile derivatives 5a–j were evaluated in vitro by using disk diffusion method against Gram-positive (S. aureus) and Gram negative (E. coli). The diameter of inhibition zone correlates to the sensitivity of a bacterium to an antibacterial agent. […] E. coli was resistant against all compounds tested (Table 2). Tetracycline and DMSO were used as positive control and negative control respectively. Next, the active compounds were analysed using MIC assay to determine the lowest concentration for inhibition. […] It seems due to the difference in structure of bacterial cell wall (i.e., the presence of outer membrane with lipid, lipopolysaccharide, and lipoprotein content in Gram negative bacteria), E. coli was resistant against the related synthetic compounds.
(§5) Antibacterial activity of the prepared synthetic compounds against the Gram-negative bacteria (E. coli; ATCC: 15922) and the Gram-positive bacteria (S. aureus; PTCC: 1112, International no. ATCC6538P) were examined by disk diffusion assay. Bacterial cultures were obtained from Persian Type Culture Collection, Tehran, Iran (PTCC). Isolated pure colonies from fresh grown bacteria were transferred from the plates into sterile normal saline solution and it was vortexed to form bacterial homogenous suspensions. The turbidity was then adjusted to 0.5 McFarland standard units, and the suspensions were poured over Mueller–Hinton agar (MHA) plates. Sterile filter paper disks were placed over these plates. The sterile disks were impregnated with the tested compounds. Positive control (tetracycline) and negative control ([…]) were used. To determine MIC, the concentrations of tested substance were prepared within the range from 30–5 mM. Incubate in incubator at 37 °C in 24 h for bacteria (Table 2).

Bcl-2 = assay: Real-time RT-PCR, Bcl-2 mRNA expression; format: cell-based, human; conditions: A549 cells, 40 μM, 48 h
Description: (§6) Finally, we confirmed that apoptosis mediated by mitochondria induces in A549 cells. It is well known that the anti-apoptotic Bcl-2 protein is localized on the outer mitochondrial membranes and antagonizes the action of pro-apoptotic Bax. The balance between these two proteins prevents translocation of cytochrome c from the mitochondria to cytoplasm and determines the apoptosis resistance. Down-regulation of Bcl-2 and/or up-regulation of Bax disturb this balance and leads to apoptosis (Fig. 3A).
(§7) For quantitative real-time RT-PCR analysis, after 48 h of treatment with 40 μM of related drug (5a), A549 cells was lysed and the total RNA was extracted using 500 μL of Trizol® reagent according to the protocol provided by the manufacturer (Invitrogen Life Technologies, Carlsbad, CA, USA) followed by reverse transcription into cDNA according to manufactures protocol (ReveretAid M-Mulv reverse transcriptase kit, Thermo Fisher Scientific, MA, USA). Real-time RT-PCR was then performed to amplify cDNA using SYBR green dye universal master mix (Bioron GmbH, Germany), on a Light Cycler 480 (Roche) using the primers for GAPDH-F: 5′-CAA GGT CAT CCA TGA CAA CTTTG-3′, R:5′-[…]-3′; Bax-F:5′-[…]-3′, R: 5′-[…]-3′and Bcl-2-F: 5′-[…]-3′, R: 5′- […]-3′for forty cycles. Data represent averaged copy number normalized to the GAPDH housekeeping gene. Primer synthesis was done by Pishgam Biotech Co. Tehran, Iran. […]

E. coli = assay: Disk diffusion antibacterial test; format: cell-based, Escherichia coli; set-up: key: —: inactive at concentration 50 mM; conditions: disc diffusion test, concentration 50 mM
Protocol: as §4, §5

A549 cells [3] = assay: DAPI staining assay; format: cell-based, human; conditions: 24 h treatment
Protocol: as §1
DAPI staining assay was used to determine chromatin changes. A549 cells were seeded in six well plates (5 × 10^4 cells per well) containing 12 mm cover-slips and subsequently treated for compound 5a (sample or treated cells) and DMSO (control or untreated cells) for 24 h. Cells then were fixed with 3.7% paraformaldehyde, permeabilized in 0.5% (w/v) Triton X-100, 1% BSA (w/v) for 5 min, washed in PBS, and stained with DAPI (Sigma-Aldrich, USA). All images were taken by an inverted fluorescent microscope (Nikon Eclipse Ti-E).

Bax = assay: Real-time RT-PCR, Bax mRNA expression; format: cell-based, human; conditions: A549 cells, 40 μM, 48 h
Description: as §6, §7

S. aureus [4] = assay: MIC determination; format: cell-based; conditions: Staphylococcus aureus; read-out: MICs (mM) S. aureus
Protocol: as §4, §5

MIC (S. aureus [4]): 5 mM (≈ 2140 µg/mL)
Compound: Cn1c2c(c(=O)n(C)c1=O)C1(C(C#N)=C(N)O2)c2ccccc2-c2c1n[nH]c(=O)c2C#N (stereo not drawn) [5a, 7′-Amino-1′,3′-dimethyl-2′,3,4′-trioxo-1′,2,2′,3,3′,4′-hexahydrospiro[indeno[2,1-c]pyridazine-9,5′-pyrano[2,3-d]pyrimidine]-4,6′-dicarbonitrile]
IC50 (A549 cells [1]): 40 ± 0.007 µM | IC50 (PC3 cells): > 100 µM | IC50 (HDF cells): > 100 µM | IC50 (MCF-7 cells): > 100 µM | IC50 (LNCaP cells): 32.15 ± 0.046 µM | IC50 (A375 cells): 70.72 ± 0.064 µM | Sensitivity of S. aureus to compound (S. aureus [2]): sensitive | Relative expression of Bcl-2 mRNA (Bcl-2): down-regulation expression | Inhibition zone (mm) E. coli (E. coli): — | Chromatin changes / cell death by DAPI staining (A549 cells [3]): induced cell death in A549 cells | Relative expression of Bax mRNA (Bax): up-regulated expression
